# Laboratory results taken from article PMC5218480 (PLoS ONE, 2017).
# System: MV-4-11 cells
# Assay: Gene expression microarray analysis (Affymetrix PrimeView) and GSEA
# Format: cell-based, human
# Conditions: gene FGFR1OP, FGFR1 oncogene partner; Azacitidine 1 mM; LIST F
structure (smiles),measurement,value
Nc1ncn([C@@H]2O[C@H](CO)[C@@H](O)[C@H]2O)c(=O)n1 [azacitidine],"RFU, FGFR1OP (ProbeSet 11751329_s_at)",410.33 RFU
